Laboratory results from patent US12606543B2, “Indole derivatives as serotonergic agents useful for the treatment of disorders related thereto” (priority 2023, dated 2026).
Like-named read-outs stand apart in the source and are kept apart here.

Assays:
[1] = Pharmacokinetic studies in rat (i.v.); format: in vivo; conditions: male, Sprague-Dawley, plasma; for concentration at 0.25 h / concentration at 1 h / concentration at 4 h: intravenous, dose per Dose column (1.32-2.09 mg/kg); for half-life / AUC(0-t): iv, rat plasma, i.v., dose per Dose column; for half-life: estimated from 2 points only
Protocol: Animals: Male Sprague-Dawley rats (˜225-350 g) from Charles River Labs were acclimatized for a minimum of 5 days prior to start of study procedures. Body weights were recorded on the day of dosing.
Any abnormalities were documented including presence/absence of wet dog shakes/back muscle contractions (WDS/BMC).
Dosing: Formulations were administered intravenously (i.v.) via the tail vein using a 25 G needle connected to a 1 cc syringe.
The exemplary compounds of Formula (I) were freshly prepared at the appropriate concentrations in 5% Tween-80 in saline.
Blood collection time (h): 0, […], 1 and 4
Volume/time-point: ˜0.25 mL (saphenous vein)
Instrumentation: AB Sciex QTRAP 4000 or 6500 MS/MS system equipped with an LC system with a binary pump, a solvent degasser, a thermostated column compartment, and a multiplate autosampler.
Analysis software: Phoenix® WinNonlin® 8.3 (Pharsight, Certara, Mountainview, CA).
Analysis methods: non-compartmental analysis, linear up/log down trapezoidal rule.
PK parameters: t1/2 and AUC0-tlast was estimated.
The Compounds of Formula (I) were freshly prepared at the appropriate concentrations in 5% Tween-80 in saline.
Instrumentation: AB Sciex QTRAP 4000 or 6500 MS/MS system equipped with an LC system with a binary pump, a solvent degasser, a thermostated column compartment and a multiplate autosampler.
PK parameters: t1/2 and AUC0-tlast will be estimated.

human 5-HT2B receptor [2] = target: T1, human 5-HT2B receptor (Homo sapiens, UniProt P41595); assay: Human 5-HT2B FLIPR calcium mobilization assay; format: cell-based; design: expressed in transfected cells; host or cells: HEK293; conditions: calcium mobilization FLIPR; for Emax (% of serotonin): HEK293 cells, relative to maximum response of serotonin; for EC50: stably transfected HEK293 cells, read-out: EC50
T1 sequence (P41595 whole entry): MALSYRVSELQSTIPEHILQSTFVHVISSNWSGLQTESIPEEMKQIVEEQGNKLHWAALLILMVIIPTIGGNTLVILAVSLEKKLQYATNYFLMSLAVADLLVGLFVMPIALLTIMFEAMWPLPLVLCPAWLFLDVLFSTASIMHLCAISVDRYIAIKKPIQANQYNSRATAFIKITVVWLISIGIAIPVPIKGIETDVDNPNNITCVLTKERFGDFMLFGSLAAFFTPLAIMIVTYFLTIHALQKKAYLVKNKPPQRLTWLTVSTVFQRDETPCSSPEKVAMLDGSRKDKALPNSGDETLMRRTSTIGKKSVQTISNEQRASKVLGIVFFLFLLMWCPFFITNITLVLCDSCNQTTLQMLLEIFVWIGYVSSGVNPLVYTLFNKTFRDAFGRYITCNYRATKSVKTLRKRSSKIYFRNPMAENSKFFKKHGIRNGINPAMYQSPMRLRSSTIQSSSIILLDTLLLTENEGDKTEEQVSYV
Protocol: Compound potency (EC50) and efficacy (Max response) against the human 5-HT2B receptor in stably transfected HEK293 cells were determined in a calcium mobilization-based assay.
Cells were seeded in a total volume of 20 μL into white walled, 384-well microplates and incubated at 37° C. overnight. Prior to testing, cell plating media was exchanged with 20 μL of Dye Loading buffer (HBSS+20 mM HEPES containing 1× Dye, 1× Additive A, and 2.5 mM Probenecid). Plates were incubated at 37° C. for 45 mins followed by 15 mins at room temperature.
(§1) 10 μL of assay buffer (HBSS+20 mM HEPES) were added to cells. Intermediate dilution of sample stocks was performed to generate 4× samples in assay buffer. Assay plates and compound plates were loaded into the FLIPR instrument. 10 μL of sample was added using the FLIPR onboard robotics after 5 seconds of starting calcium measurement. A final assay vehicle concentration was 1%. The results are expressed as percent efficacy relative to the maximum response of the control ligand (serotonin) in Table 12.
Compound potency (EC50) and efficacy (Max response) against the human 5-HT2B receptor in stably transfected HE K293 cells was determined in a calcium mobilization-based assay.
as §1, with “HEPES) was” for “HEPES) were”, “of samples were” for “of sample was”, “5 secs” for “5 seconds”, “measurement. The” for “measurement. A”, “Table 62.” for “Table 12.”

human 5-HT2B receptor [3] = target: T1, human 5-HT2B receptor; assay: Human 5-HT2B positive allosteric modulator (PAM) assay; format: cell-based; design: expressed in transfected cells; host or cells: HEK293; conditions: HEK293 cells; for Emax (% of serotonin): PAM mode, agonist at EC20, relative to maximum response of serotonin; for EC50: PAM mode: pre-incubation with sample, then agonist at EC20, read-out: EC50
Protocol: Compound potency (EC50) and efficacy (Max response) against the human 5-HT2B receptor in stably transfected HEK293 cells were determined in a GPCR cell-based assay.
(§2) For Positive Allosteric Modulator determination, cells were pre-incubated with sample followed by EC20 addition. Intermediate dilution of sample stocks were performed to generate 5× samples in assay buffer. 5 μL of 5× samples were added to cells and incubated at 37° C. for 10 mins. 5 μL of agonist at 6×EC20 concentration was added and cells were incubated at 37° C. for 120 mins. Final assay vehicle concentration was 1%. The results are expressed as percent efficacy relative to the maximum response of the control ligand (serotonin) in Table 14.
Compound potency (EC50) and efficacy (Max response) against the human 5-HT2B receptor in stably transfected HEK293 cells was determined in a GPCR cell-based assay.
as §2, with “sample stocks was performed to” for “sample stocks were performed to”, “added and the cells were” for “added and cells were”, “120 mins. The final assay vehicle” for “120 mins. Final assay vehicle”, “in Table 64.” for “in Table 14.”

[4] = first animal (R07/R04/R01/R10), read-out: Plasma concentration
[5] = mean of 3 rats, read-out: Plasma concentration, Mean ± SD
[6] = second animal (R08/R05/R02/R11), read-out: Plasma concentration
[7] = third animal (R09/R06/R03/R12), read-out: Plasma concentration
[8] = first animal (R07/R04/R01/R10), read-out: Apparent t1/2 (converted)
[9] = mean of 3 rats, read-out: Apparent t1/2, Mean ± SD (converted)
[10] = second animal (R08/R05/R02/R11), read-out: Apparent t1/2 (converted)
[11] = third animal (R09/R06/R03/R12), read-out: Apparent t1/2 (converted)
[12] = first animal (R07/R04/R01/R10), read-out: AUC0-tlast
[13] = mean of 3 rats, read-out: AUC0-tlast, Mean ± SD
[14] = second animal (R08/R05/R02/R11), read-out: AUC0-tlast
[15] = third animal (R09/R06/R03/R12), read-out: AUC0-tlast

SMILES	concentration at 0.25 h [1, 4]	concentration at 0.25 h [1, 5]	concentration at 0.25 h [1, 6]	concentration at 0.25 h [1, 7]	concentration at 1 h [1, 4]	concentration at 1 h [1, 5]	concentration at 1 h [1, 6]	concentration at 1 h [1, 7]	concentration at 4 h [1, 4]	concentration at 4 h [1, 5]	concentration at 4 h [1, 6]	concentration at 4 h [1, 7]	half-life [1, 8]	half-life [1, 9]	half-life [1, 10]	half-life [1, 11]	AUC(0-t) [1, 12]	AUC(0-t) [1, 13]	AUC(0-t) [1, 14]	AUC(0-t) [1, 15]	further results
[2H]C([2H])(c1c[nH]c2ccc(OCCCCCN3C(=O)C4CCCCC4C3=O)cc12)[C@H]1CCCN1C([2H])([2H])[2H] (mixture of isomers) [Rac (R) I-248]	235 ng/mL	377 ± 123 ng/mL	437 ng/mL	459 ng/mL	134 ng/mL	144 ± 15.9 ng/mL	135 ng/mL	162 ng/mL	27.8 ng/mL	18.8 ± 8.29 ng/mL	11.5 ng/mL	17 ng/mL	1.25 h	0.939 ± 0.269 h	0.747 h	0.823 h	402 ng·h/mL	474 ± 71 ng·h/mL	477 ng·h/mL	544 ng·h/mL	–
[2H]C([2H])(c1c[nH]c2ccc(OCCCCCN3C(=O)c4ccccc4C3=O)cc12)[C@H]1CCCN1C([2H])([2H])[2H] [(R) I-245, (R)-2-(5-((3-((1-(Methyl-d3)pyrrolidin-2-yl)methyl-d2)-1H-indol-5-yl)oxy)pentyl)isoindoline-1,3-dione]	307 ng/mL	178 ± 119 ng/mL	154 ng/mL	71.8 ng/mL	170 ng/mL	130 ± 36.6 ng/mL	121 ng/mL	98.3 ng/mL	39.9 ng/mL	43.9 ± 4.21 ng/mL	43.6 ng/mL	48.3 ng/mL	1.32 h	2.1 ± 0.806 h	2.05 h	2.93 h	528 ng·h/mL	397 ± 120 ng·h/mL	370 ng·h/mL	293 ng·h/mL	Emax (% of serotonin) (human 5-HT2B receptor [2]): 53.91 % of serotonin; EC50 (human 5-HT2B receptor [2]): 11.2 nM; Emax (% of serotonin) (human 5-HT2B receptor [3]): 0 % of serotonin; EC50 (human 5-HT2B receptor [3]): > 3330 nM
[2H]C([2H])(c1c[nH]c2ccc(OCCCCCN3C(=O)[C@H]4CCCC[C@H]4C3=O)cc12)[C@H]1CCCN1C([2H])([2H])[2H] [Cis (R) I-248, 2-(5-((3-(((R)-1-(Methyl-d3)pyrrolidin-2-yl)methyl-d2)-1H-indol-5-yl)oxy)pentyl)hexahydro-1H-isoindole-1,3(2H)-dione]	–	–	–	–	–	–	–	–	–	–	–	–	–	–	–	–	–	–	–	–	Emax (% of serotonin) (human 5-HT2B receptor [2]): 69.85 % of serotonin; EC50 (human 5-HT2B receptor [2]): 24.9 nM; Emax (% of serotonin) (human 5-HT2B receptor [3]): 7.97 % of serotonin; EC50 (human 5-HT2B receptor [3]): > 10000 nM
